Laboratory results taken from patent US8623405B2, “Finely divided composition containing poorly water soluble substance” (Takeda Pharmaceutical Company Limited, priority 2005, dated 2014).

Legend:
Assay type in all cases: physicochemical
[1] = Particle size measurement of pulverized suspensions (laser diffraction/scattering LA-920)
[2] = Degree of crystallinity of composition after pulverization (powder X-ray diffraction, Vonk method); settings: after pulverization (freeze-dried pulverized suspension of Example 1)
Experimental: A powder obtained by freeze-drying the pulverized suspension obtained in Example 1 was enclosed in a quartz glass capillary and measured using a powder X-ray diffraction measurement apparatus (Rigaku Corporation, ultraX TTR2-300), Cu rotating target, parallel beam method (50 kV, 300 mA), scanning angle 3-120 degrees, scan step 0.02 degree/counting time 0.6 sec. The degree of crystallinity was calculated from the obtained X-ray diffraction profile using the Vonk method.
The X-ray diffraction profiles were obtained by measurements using the above-mentioned measurement apparatuses and conditions.

[3] = as above; settings: before pulverization
[4] = Particle size measurement of pulverized suspensions (laser diffraction/scattering LA-920); settings: after pulverization (Example 1, ball mill with Kollidon 17PF and sodium lauryl sulfate)
From the text: The dispersion medium used for the measurement is usually water, but an aqueous solution of a substance other than the poorly water soluble substance contained in the composition and the like (for some purposes, buffer solutions at various pH levels, mimicked body fluid, 0.5% methylcellulose aqueous solution and the like) can also be used.
“90% frequency particle diameter” is a particle diameter corresponding to the 90% frequency of the above-described integral distribution curve and, in the present invention, means the particle diameter of 90% frequency (90% frequency particle diameter) of the composition dispersed in a liquid, as measured using a laser diffraction/scattering particle size distribution analyzer (LA-920, Horiba Ltd.).
As a dispersion medium, purified water was used.

[5] = after pulverization (Example 1, ball mill with Kollidon 17PF and sodium lauryl sulfate)
[6] = before pulverization, substances used in Example 1

Row | Compound | particle size: D50 [1, 5] [μm] | particle size: D50 [1, 6] [μm] | degree of crystallinity [2] [%] | turbulent factor [2] | degree of crystallinity [3] [%] | turbulent factor [3] | D90 [4] [μm]
1 | COC1=CC(=O)C[C@@H](C)[C@]12Oc1c(Cl)c(OC)cc(OC)c1C2=O [griseofluvin, 7-chloro-2′,4,6-trimethoxy-6′-methylspiro[benzofuran-2(3H),1′-[2]cyclohexene]-3,4′-dione] | 0.35 | 6.35 |  |  |  |  | 0.50
2 | CC(C(=O)O)c1cccc(C(=O)c2ccccc2)c1 (stereo not shown) [ketoprofen, Ketoprofen] | 0.50 |  |  |  |  |  | 0.77
3 | COc1cc(NS(=O)(=O)c2ccc(N)cc2)nc(OC)n1 [sulfadimethoxine] | 0.44 |  |  |  |  |  | 0.65

Next, values leading:

Row | particle size: D50 [1, 5] [μm] | particle size: D50 [1, 6] [μm] | degree of crystallinity [2] [%] | turbulent factor [2] | degree of crystallinity [3] [%] | turbulent factor [3] | D90 [4] [μm] | Compound
4 | 0.42 | 5.68 | 61.3 | 1.412 | 74.7 | −0.163 | 0.68 | FC(F)(F)c1ccc(/C=C/c2nc(COc3ccc(CCCCn4ccnn4)cc3)co2)cc1 [compound A, 1-(4-{4-[(2-{(E)-2-[4-(trifluoromethyl)phenyl]ethenyl}-1,3-oxazol-4-yl)methoxy]phenyl}butyl)-1H-1,2,3-triazole]
5 | 0.39 | 1.67 | 68.7 | 2.249 | 73.7 | 0.622 | 0.55 | CCC1=C(C)CN(C(=O)NCCc2ccc(S(=O)(=O)NC(=O)N[C@H]3CC[C@H](C)CC3)cc2)C1=O [glimepiride]
6 | 0.36 | 9.61 | 89.8 | 0.793 | 99.9 | −0.001 | 0.50 | COc1ccc2c(c1)c(CC(=O)O)c(C)n2C(=O)c1ccc(Cl)cc1 [indomethacin]
